The subject of experiment [1] is Nucleic Acid. Particulars: at 10 µM.
Description: Inhibition of N-acetylphenylalanine-tRNA peptide bond formation by fragment reaction at 10e-5 M
Experiment [2] deals with Nucleic Acid. The settings on record: at 1 µM.
Description: Inhibition of N-acetylphenylalanine-tRNA peptide bond formation by puromycin reaction at 10E-6 M
Experiment [3] has as its system Nucleic Acid. The settings on record: at 10 µM. This is another data set of the same source.
Description: Inhibition of N-acetylphenylalanine-tRNA peptide bond formation by puromycin reaction at 10E-5 M

With SPIRAMYCIN, the values for the inhibition in the experiment on Nucleic Acid [1], in the experiment with Nucleic Acid [2] and with Nucleic Acid [3] were 48%, 53% and 85%, respectively.

`CC[C@H]1OC(=O)[C@H](C)[C@@H](O[C@H]2C[C@@](C)(OC)[C@@H](O)[C@H](C)O2)[C@H](C)[C@@H](O[C@@H]2O[C@H](C)C[C@H](N(C)C)[C@H]2O)[C@@](C)(O)C[C@@H](C)[C@H](NC(=O)COc2cc(N=[N+]=[N-])ccc2CO)[C@H](C)[C@@H](O)[C@]1(C)O`: the inhibition in the experiment on Nucleic Acid [1] was 0%; in the experiment with Nucleic Acid [2], 15%; in the experiment with Nucleic Acid [3], 23%.

For the molecule `CC[C@H]1OC(=O)[C@H](C)[C@@H](O[C@H]2C[C@@](C)(OC)[C@@H](O)[C@H](C)O2)[C@H](C)[C@@H](O[C@@H]2O[C@H](C)C[C@H](N(C)C)[C@H]2O)[C@@](C)(O)C[C@@H](C)[C@H](NC(=O)CNC(=O)CCCOc2ccc([N+](=O)[O-])cc2OC)[C@H](C)[C@@H](O)[C@]1(C)O`, the figures for the inhibition in the experiment with Nucleic Acid [1], in the experiment with Nucleic Acid [2] and with Nucleic Acid [3] were 24%, 18% and 30%, respectively.

Regarding `CC[C@H]1OC(=O)[C@H](C)[C@@H](O[C@H]2C[C@@](C)(OC)[C@@H](O)[C@H](C)O2)[C@H](C)[C@@H](O[C@@H]2O[C@H](C)C[C@H](N(C)C)[C@H]2O)[C@@](C)(O)C[C@@H](C)[C@H](NC(=O)CCCOc2ccc([N+](=O)[O-])cc2OC)[C@H](C)[C@@H](O)[C@]1(C)O`, the inhibition in the experiment on Nucleic Acid [1] was 11%; in the experiment with Nucleic Acid [2] it was 13%; in the experiment with Nucleic Acid [3] it was 25%.

(Values after ChEMBL document CHEMBL1124648, “Synthesis and biological activity of photoactive derivatives of erythromycin” (J Med Chem, 1989).)
